From US20160115225A1, “Methods of Reducing Methylglyoxal (MGO) Modification of Recombinant Proteins in Cell Culture” (AbbVie Inc., priority 2014, published 2016)

What was measured:
[1] = system: adalimumab producing cell line 1; assay: Glucose consumption of the culture, cell line 1; assay type: cell-based
Procedure: (§1) For the bioreactor (3 L Applikon) experiments (Examples 1, 2 and 3), 3 L, bioreactors (1.5 L working volume) were initiated at 35° C. (cell line 1) and 36° C. (cell line 2), 30% DO, 200 rpm, pH of 7.1. In some of the conditions, pH was ramped down to 6.8 in three days and kept at pH 6.8 thereafter. The inclusion of pH ramp for a particular condition is indicated by the final pH in the experimental design. If the final pH is 7.1, then it indicates no pH ramp was performed, whereas if the final pH is 6.8, a pH ramp was performed on day 3 from pH 7.1 to pH 6.8. In some of the conditions, a temperature shift was performed. When temperature shift was performed, the temperature was lowered to 33° C. Again, the conditions where such a temperature shift was performed can be identified from the final temperature in the experimental design. Cultures were run in extended batch mode with the addition of a desired amount of 40% glucose stock solution was fed based on glucose measurements.
To assess if this reduction in MGO modification in the test conditions also corresponded to lower glucose consumption, the specific glucose consumption rate was calculated across the two phases of culture: average over day 0-day 5 and average over day 5-10 (period post temperature shift) (FIG. 4b). The specific glucose consumption rate in the conditions with 2DDG supplementation was lower in both phases. […] In the period post the temperature shift, up to 50% reduction in specific glucose consumption rate relative to that in the control was observed. Thus, a clear correlation has been observed between reduced glucose consumption and the extent of MGO modification of the peptides.
To further assess the applicability of this strategy, the cumulative glucose consumption levels were also evaluated for these conditions in this study (FIG. 6b). This was calculated by using daily glucose concentration measurements via the offline analyzer and by accounting for glucose feeds when added. […]

[2] = system: adalimumab producing cell line 1; assay: Cell growth, viability and titer, bioreactor culture, cell line 1; assay type: cell-based; settings: Example 2; 2DDG 0.25 g/l; versus control
Procedure: as §1, with “measurements. […]” for “measurements.”
The cells were grown to maximum viable cell densities (VCD) in the range of 10-14×10^6 cells/ml for the different conditions tested. […] Samples were subsequently analyzed using Poros A for titer and WCX-10 post protein A purification. Based on the WCX-10 chromatograms, the percentages of total peak(s) area corresponding to the acidic species were quantified. […]

O=CC[C@@H](O)[C@H](O)[C@H](O)CO [Test 2DDG, 2-Deoxy-D-Glucose]
specific glucose consumption rate ([1]; Example 2, 2DDG 0.25 g/l, day 0-day 5 and day 5-10, versus control): lower | glucose consumption ([1]; Example 3, 2DDG supplementation 0.25 g/l): significant reduction | cell growth and viability profile [2]: slight increase
